In patent US20240360137A1 (Novartis AG, priority 2023, published 2024) one finds IC50 data, which are given here for 15 compounds.

Assay in all cases: CDKi biochemical assay (TR-FRET, phosphorylation of S780 on RB1 peptide)
A general note: Time-resolved FRET reads energy transfer from a long-lived donor to a nearby acceptor.

In one test the target is CDK2/CyclinE1 (Homo sapiens, UniProt P24941). The following applies: CDK2/CyclinE1 100 pM, 1 mM ATP, 60 min at 25° C. In a few lines:
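CDK2/CyclinE1 (Avi-tag, 100 pM; CDK2 E. coli-expressed) phosphorylated His-MBP-RB1[773-924] (200 nM) at S780 with 1 mM ATP in HEPES pH 7.5/MgCl2/DTT, 60 min at 25° C. After EDTA quench, TR-FRET detection ran 3 h (Eu anti-p-RB S780, SA-APC). Apparent IC50 came from percent activity versus log concentration.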

The target of a further test is CDK4/cyclinD1 (Homo sapiens, UniProt P11802). The following applies: CDK4/cyclinD1 20 pM, 1 mM ATP, 60 min at 25° C. The essentials: (§1)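 Avi-tagged, biotinylated CDK4/cyclinD1 (20 pM) or CDK6/cyclinD3 (10 pM) phosphorylates 200 nM His-MBP-RB1[773-924] at S780 with 1 mM ATP in HEPES pH 7.5/MgCl2, 60 min, 25° C. After EDTA quench, Eu anti-pRB(S780)/SA-APC TR-FRET is read after 3 h. Apparent IC50 comes from % activity versus log concentration.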

The target of another test is CDK6/cyclinD3 (Homo sapiens, UniProt Q00534). The following applies: CDK6/cyclinD3 10 pM, 1 mM ATP, 60 min at 25° C. In a few lines: as §1
Another test addresses CDK1/CyclinB1 (Homo sapiens, UniProt P06493). The following applies: CDK1/CyclinB1 10 pM, 1 mM ATP, 60 min at 25° C. The essentials: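 CDK1/CyclinB1 (10 pM, Avi-tagged, insect-cell expressed) phosphorylated S780 of His-MBP-RB1[773-924] (200 nM) with 1 mM ATP in HEPES pH 7.5, 10 mM MgCl2, 1 mM DTT, 60 min at 25 °C. After EDTA quench, TR-FRET detection (Eu anti-pRB S780, SA-APC) for 3 h; apparent IC50 from percent activity versus log concentration.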

Where only a bound is given, the exact number is not on record here.

For the compound `O=C1N([C@@H]2CCC[C@@H](O)C2)c2nc(Nc3c[nH]nc3OCC3(F)COC3)ncc2C12CC2` [Example 48, 2′-((3-((3-fluorooxetan-3-yl)methoxy)-1H-pyrazol-4-yl)amino)-7′-((1R,3R)-3-hydroxycyclohexyl)spiro[cyclopropane-1,5′-pyrrolo[2,3-d]pyrimidin]-6′(7′H)-one], the concentration for half-maximal inhibition (IC50) on CDK2/CyclinE1 is 0.022 µM; on CDK4/cyclinD1, 1.54 µM; on CDK6/cyclinD3, ≥ 10 µM; against CDK1/CyclinB1, 3.25 µM.
In the case of `[2H]C([2H])([2H])Oc1n[nH]cc1Nc1ncc2c(n1)N([C@@H]1CCC[C@@H](O)C1)C(=O)C21CC1` [Example 49, 7′-((1R,3R)-3-hydroxycyclohexyl)-2′-((3-(methoxy-d3)-1H-pyrazol-4-yl)amino)spiro[cyclopropane-1,5′-pyrrolo[2,3-d]pyrimidin]-6′(7′H)-one], the IC50 was 0.015 µM on CDK2/CyclinE1, 9.77 µM at CDK4/cyclinD1, ≥ 10 µM on CDK6/cyclinD3 and 2.64 µM against CDK1/CyclinB1.
Take `CN1C[C@@H](F)[C@H](Oc2n[nH]cc2Nc2ncc3c(n2)N([C@@H]2CCC[C@@H](O)C2)C(=O)C32CC2)C1` [Example 50, 2′-((3-(((3R,4R)-4-fluoro-1-methylpyrrolidin-3-yl)oxy)-1H-pyrazol-4-yl)amino)-7′-((1R,3R)-3-hydroxycyclohexyl)spiro[cyclopropane-1,5′-pyrrolo[2,3-d]pyrimidin]-6′(7′H)-one]: the half-maximal inhibitory concentration (IC50) was 0.125 µM on CDK2/CyclinE1, ≥ 10 µM against CDK4/cyclinD1, ≥ 10 µM at CDK6/cyclinD3 and ≥ 10 µM against CDK1/CyclinB1.
Turning to `CN1C[C@H](Oc2n[nH]cc2Nc2ncc3c(n2)N([C@@H]2CCC[C@@H](O)C2)C(=O)C32CC2)[C@@H](F)C1` [Example 51, 2′-((3-(((3S,4S)-4-fluoro-1-methylpyrrolidin-3-yl)oxy)-1H-pyrazol-4-yl)amino)-7′-((1R,3R)-3-hydroxycyclohexyl)spiro[cyclopropane-1,5′-pyrrolo[2,3-d]pyrimidin]-6′(7′H)-one], the IC50 at CDK2/CyclinE1 is 0.119 µM; against CDK4/cyclinD1, ≥ 10 µM; against CDK6/cyclinD3 it was ≥ 10 µM; against CDK1/CyclinB1 it was ≥ 10 µM.
Turning to `CC(=O)N1CC2(CC(COc3n[nH]cc3Nc3ncc4c(n3)N([C@@H]3CCC[C@@H](O)C3)C(=O)C43CC3)C2)C1` [Example 53, 2′-((3-((2-acetyl-2-azaspiro[3.3]heptan-6-yl)methoxy)-1H-pyrazol-4-yl)amino)-7′-((1R,3R)-3-hydroxycyclohexyl)spiro[cyclopropane-1,5′-pyrrolo[2,3-d]pyrimidin]-6′(7′H)-one], the IC50 on CDK2/CyclinE1 is 0.186 µM; against CDK4/cyclinD1, ≥ 10 µM; against CDK6/cyclinD3 it was ≥ 10 µM; against CDK1/CyclinB1, ≥ 10 µM.
Regarding `O=C1N([C@@H]2CCC[C@@H](O)C2)c2nc(Nc3c[nH]nc3OCC3CC4(COC4)C3)ncc2C12CC2` [Example 54, 2′-((3-((2-oxaspiro[3.3]heptan-6-yl)methoxy)-1H-pyrazol-4-yl)amino)-7′-((1R,3R)-3-hydroxycyclohexyl)spiro[cyclopropane-1,5′-pyrrolo[2,3-d]pyrimidin]-6′(7′H)-one], the 50% inhibitory concentration (IC50) against CDK2/CyclinE1 is 0.134 µM; at CDK4/cyclinD1, ≥ 10 µM; on CDK6/cyclinD3, ≥ 10 µM; at CDK1/CyclinB1 it was ≥ 10 µM.
`O=C1N([C@@H]2CCC[C@@H](O)C2)c2nc(Nc3c[nH]nc3OC3CC3)ncc2C12CC2` [Example 55]: the concentration for half-maximal inhibition (IC50) at CDK2/CyclinE1 is 0.011 µM; against CDK4/cyclinD1, 8.5 µM; at CDK6/cyclinD3 it was ≥ 10 µM; on CDK1/CyclinB1, 1.43 µM.
Consider `O=C1N([C@@H]2CCC[C@@H](O)C2)c2nc(Nc3c[nH]nc3OCC(F)(F)F)ncc2C12CC2` [Example 56, 7′-((1R,3R)-3-hydroxycyclohexyl)-2′-((3-(2,2,2-trifluoroethoxy)-1H-pyrazol-4-yl)amino)spiro[cyclopropane-1,5′-pyrrolo[2,3-d]pyrimidin]-6′(7′H)-one], for which the 50% inhibitory concentration (IC50) against CDK2/CyclinE1 came to 0.01 µM; against CDK4/cyclinD1, 3.13 µM; at CDK6/cyclinD3, 6.28 µM; against CDK1/CyclinB1, 0.8 µM.
Take `Cn1ncc(-c2n[nH]cc2Nc2ncc3c(n2)N([C@@H]2CCC[C@@H](O)C2)C(=O)C32CC2)c1Cl` [Example 57, 2′-((5′-chloro-1′-methyl-1H,1′H-[3,4′-bipyrazol]-4-yl)amino)-7-((1R,3R)-3-hydroxycyclohexyl)spiro[cyclopropane-1,5′-pyrrolo[2,3-d]pyrimidin]-6′(7′H)-one]: the concentration for half-maximal inhibition (IC50) on CDK2/CyclinE1 is 0.015 µM; against CDK4/cyclinD1, 7.9 µM; at CDK6/cyclinD3, ≥ 10 µM; at CDK1/CyclinB1 it was 2.04 µM.
For `CC#Cc1n[nH]cc1Nc1ncc2c(n1)N([C@@H]1CCC[C@@H](O)C1)C(=O)C21CC1` [Example 58, 7′-((1R,3R)-3-hydroxycyclohexyl)-2′-((3-(prop-1-yn-1-yl)-1H-pyrazol-4-yl)amino)spiro[cyclopropane-1,5′-pyrrolo[2,3-d]pyrimidin]-6′(7′H)-one] the same measures were 0.016 µM, 9.5 µM, ≥ 10 µM and 3.54 µM.
For `O=C1N([C@@H]2CCC[C@@H](O)C2)c2nc(Nc3c[nH]nc3-c3ccncc3)ncc2C12CC2` [Example 59, 7′-((1R,3R)-3-hydroxycyclohexyl)-2′-((3-(pyridin-4-yl)-1H-pyrazol-4-yl)amino)spiro[cyclopropane-1,5′-pyrrolo[2,3-d]pyrimidin]-6′(7′H)-one] the same measures were 0.251 µM, ≥ 10 µM, ≥ 10 µM and ≥ 10 µM.
`O=C1N([C@@H]2CCC[C@@H](O)C2)c2nc(Nc3c[nH]nc3-c3ccccn3)ncc2C12CC2` [Example 60, 7′-((1R,3R)-3-hydroxycyclohexyl)-2′-((3-(pyridin-2-yl)-1H-pyrazol-4-yl)amino)spiro[cyclopropane-1,5′-pyrrolo[2,3-d]pyrimidin]-6′(7′H)-one]: the IC50 at CDK2/CyclinE1 was 0.162 µM; on CDK4/cyclinD1, ≥ 10 µM; against CDK6/cyclinD3 it was ≥ 10 µM; against CDK1/CyclinB1, ≥ 10 µM.
For `O=C1N([C@@H]2CCC[C@@H](O)C2)c2nc(Nc3c[nH]nc3-c3cccnc3)ncc2C12CC2` [Example 61, 7′-((1R,3R)-3-hydroxycyclohexyl)-2′-((3-(pyridin-3-yl)-1H-pyrazol-4-yl)amino)spiro[cyclopropane-1,5′-pyrrolo[2,3-d]pyrimidin]-6′(7′H)-one], the IC50 is 0.046 µM against CDK2/CyclinE1, 8.65 µM on CDK4/cyclinD1, 9.19 µM against CDK6/cyclinD3 and ≥ 10 µM against CDK1/CyclinB1.
Regarding `Cc1c(-c2n[nH]cc2Nc2ncc3c(n2)N([C@@H]2CCC[C@@H](O)C2)C(=O)C32CC2)cnn1C(F)F` [Example 62], the IC50 worked out at 0.017 µM against CDK2/CyclinE1, 2.3 µM against CDK4/cyclinD1, 1.83 µM at CDK6/cyclinD3 and 4.23 µM against CDK1/CyclinB1.
`O=C1N([C@@H]2CCC[C@@H](O)C2)c2nc(Nc3c[nH]nc3O[C@@H]3CCOC3)ncc2C12CC2` [Example 63, 7′-((1R,3R)-3-hydroxycyclohexyl)-2′-((3-(((R)-tetrahydrofuran-3-yl)oxy)-1H-pyrazol-4-yl)amino)spiro[cyclopropane-1,5′-pyrrolo[2,3-d]pyrimidin]-6′(7′H)-one]: the half-maximal inhibitory concentration (IC50) is 0.043 µM at CDK2/CyclinE1, ≥ 10 µM against CDK4/cyclinD1, ≥ 10 µM against CDK6/cyclinD3 and 3.69 µM against CDK1/CyclinB1.

For orientation: IC50 means the concentration that gives 50% inhibition.
